These are literature values, as cited in US5597804A, “N-sulfonylarginine keto-amide compounds” (Corvas International, Inc., priority 1993, dated 1997).

Holding throughout (details): reported by Ocain et al.; read-out: inhibitor constant
One series deals with cytosol aminopeptidase.
Another series addresses arginyl aminopeptidase.
Series [1] addresses T1, microsomal aminopeptidase (Sus scrofa, UniProt P15145).
T1 sequence (P15145 1-963): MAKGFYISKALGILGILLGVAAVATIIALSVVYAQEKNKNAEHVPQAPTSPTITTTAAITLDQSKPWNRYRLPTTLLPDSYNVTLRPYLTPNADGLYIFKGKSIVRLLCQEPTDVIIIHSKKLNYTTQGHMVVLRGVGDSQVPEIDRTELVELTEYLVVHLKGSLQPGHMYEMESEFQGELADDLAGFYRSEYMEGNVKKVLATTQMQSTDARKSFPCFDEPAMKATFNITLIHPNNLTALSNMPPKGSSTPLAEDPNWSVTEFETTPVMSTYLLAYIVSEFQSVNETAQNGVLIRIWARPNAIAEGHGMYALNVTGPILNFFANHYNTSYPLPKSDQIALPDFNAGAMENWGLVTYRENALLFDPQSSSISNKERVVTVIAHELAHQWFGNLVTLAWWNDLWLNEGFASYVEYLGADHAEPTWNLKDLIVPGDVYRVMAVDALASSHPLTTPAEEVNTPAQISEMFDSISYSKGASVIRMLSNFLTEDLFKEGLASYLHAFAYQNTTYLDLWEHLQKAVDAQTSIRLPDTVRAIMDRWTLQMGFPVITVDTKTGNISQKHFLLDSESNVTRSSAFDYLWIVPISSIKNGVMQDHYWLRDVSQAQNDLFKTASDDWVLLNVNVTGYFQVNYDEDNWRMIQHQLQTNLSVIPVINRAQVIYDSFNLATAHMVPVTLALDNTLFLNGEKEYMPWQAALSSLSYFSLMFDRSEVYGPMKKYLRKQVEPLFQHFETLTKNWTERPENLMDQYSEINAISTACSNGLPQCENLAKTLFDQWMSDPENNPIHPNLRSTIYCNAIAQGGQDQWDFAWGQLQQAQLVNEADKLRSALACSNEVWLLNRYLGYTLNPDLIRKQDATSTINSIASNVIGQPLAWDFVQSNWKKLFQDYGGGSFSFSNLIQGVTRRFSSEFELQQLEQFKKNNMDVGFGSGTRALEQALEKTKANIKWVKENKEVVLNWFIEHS

In the case of `NC(=O)C(=O)C(N)Cc1ccccc1` (stereo not drawn) [3-Amino-2-oxo-4-phenylbutanoic acid amide], the Ki on cytosol aminopeptidase is 1000 µM; on arginyl aminopeptidase, 1500 µM; in series [1], 2500 µM.
